Measured values reported in patent US12281079B2, “Quinoline derivatives, processes for their preparation and uses thereof for the treatment of cancer” (Lead Discovery Center GmbH, priority 2019, dated 2025).

Tests used:
[1] = target: mitochondrial RNA polymerase (POLRMT) (Mus musculus, UniProt Q8BKF1); assay: Homogeneous TR-FRET assay for mitochondrial transcription activity; format: biochemical; settings: homogeneous TR-FRET assay according to Example 4
Outline: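 Read-out is TR-FRET (ex 340, em 665 nm) from two adjacent labelled DNA probes annealing to the 407 bp transcript after EDTA/700 mM NaCl stop. Reaction: murine POLRMT, TFAM, TFB2M and LSP plasmid template, compound 10 μM or serial dilution, 10 min rt preincubation, 500 μM each nucleotide, 2 h rt.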

[2] = system: mitochondrial transcription (7S RNA) in HeLa cells; assay: Quantitative real time-PCR assay of inhibition of mitochondrial transcription (7S RNA) in HeLa cells; format: cell-based; settings: Homo sapiens, 4 h compound incubation, according to Example 5, read-out: cellular qPCR assay
Outline: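 HeLa cells were exposed to compound dilution series or DMSO for 4 h, then RNA was extracted, normalized and reverse-transcribed. TaqMan qRT-PCR measured short-lived 7S RNA, with POLRMT as nuclear-transcription readout and TBP as housekeeping gene. Biological triplicates were analyzed by ΔΔCt and reported as Rq % (2−ΔΔCt).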

mitochondrial RNA polymerase (POLRMT), sequence (Q8BKF1 42-1207): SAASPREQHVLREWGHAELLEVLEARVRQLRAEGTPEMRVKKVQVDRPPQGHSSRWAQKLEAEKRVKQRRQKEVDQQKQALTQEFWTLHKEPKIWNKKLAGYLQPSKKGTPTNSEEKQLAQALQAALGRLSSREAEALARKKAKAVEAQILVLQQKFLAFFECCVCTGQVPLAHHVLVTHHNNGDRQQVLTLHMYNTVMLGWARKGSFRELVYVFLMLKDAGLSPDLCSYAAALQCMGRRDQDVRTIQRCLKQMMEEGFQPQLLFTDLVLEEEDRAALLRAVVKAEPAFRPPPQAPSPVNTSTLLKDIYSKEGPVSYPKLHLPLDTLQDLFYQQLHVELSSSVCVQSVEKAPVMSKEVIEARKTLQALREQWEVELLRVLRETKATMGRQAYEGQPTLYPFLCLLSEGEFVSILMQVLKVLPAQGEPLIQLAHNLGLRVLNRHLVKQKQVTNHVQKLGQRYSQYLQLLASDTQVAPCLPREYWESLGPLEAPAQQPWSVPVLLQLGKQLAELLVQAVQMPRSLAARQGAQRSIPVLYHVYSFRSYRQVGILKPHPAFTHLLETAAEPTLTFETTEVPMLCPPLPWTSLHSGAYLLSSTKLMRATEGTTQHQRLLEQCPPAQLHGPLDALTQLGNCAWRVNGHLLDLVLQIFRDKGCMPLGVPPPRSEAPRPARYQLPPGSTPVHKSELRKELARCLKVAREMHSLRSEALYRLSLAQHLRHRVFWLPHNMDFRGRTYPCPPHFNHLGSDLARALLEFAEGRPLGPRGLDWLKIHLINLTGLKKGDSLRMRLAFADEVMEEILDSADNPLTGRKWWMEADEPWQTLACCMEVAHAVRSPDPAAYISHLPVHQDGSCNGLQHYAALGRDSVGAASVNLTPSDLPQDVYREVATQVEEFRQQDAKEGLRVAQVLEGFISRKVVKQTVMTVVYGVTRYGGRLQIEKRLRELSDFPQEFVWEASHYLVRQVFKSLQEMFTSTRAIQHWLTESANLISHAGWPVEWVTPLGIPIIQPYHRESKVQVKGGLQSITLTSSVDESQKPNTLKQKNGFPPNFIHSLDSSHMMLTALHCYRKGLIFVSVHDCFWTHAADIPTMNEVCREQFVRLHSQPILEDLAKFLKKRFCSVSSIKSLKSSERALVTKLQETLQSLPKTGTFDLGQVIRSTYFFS

SMILES	IC50 [1]	IC50 [2]
C[C@@H](Oc1ccc2c(-c3ccc(F)cc3Cl)ccnc2c1)C(=O)N1CCC(C(=O)O)CC1 [Compound 24, 1-[(2R)-2-[[4-(2-chloro-4-fluoro-phenyl)-7-quinolyl]oxy]propanoyl]piperidine-4-carboxylic acid]	0.02 to 0.1 µM	0.05 to 0.5 µM
C[C@@H](Oc1ccc2c(-c3ccc(F)cc3Cl)ccnc2c1)C(=O)N1CCC[C@@](C)(C(=O)O)C1 [Compound 198, (3R)-1-[(2R)-2-[[4-(2-chloro-4-fluoro-phenyl)-7-quinolyl]oxy]propanoyl]-3-methyl-piperidine-3-carboxylic acid]	0.02 to 0.1 µM	< 0.01 µM
Cc1cccc(C)c1-c1ccnc2cc(O[C@H](C)C(=O)N3CCC[C@H](C(=O)O)C3)ccc12 [Compound 2, (3S)-1-[(2R)-2-[[4-(2,6-dimethylphenyl)-7-quinolyl]oxy]propanoyl]piperidine-3-carboxylic acid]	< 0.02 µM	< 0.01 µM
CCOC(=O)[C@H]1CCCN(C(=O)[C@@H](C)Oc2ccc3c(-c4ccccc4Cl)cc(F)nc3c2)C1 [Compound 41, ethyl (3S)-1-[(2R)-2-[[4-(2-chlorophenyl)-2-fluoro-7-quinolyl]oxy]propanoyl]piperidine-3-carboxylate]	0.1 to 1 µM	0.5 to 5 µM
O=C(O)[C@H]1CCCN(C(=O)COc2ccc3c(-c4ccccc4Cl)ccnc3c2)C1 [Compound 46, (3S)-1-[2-[[4-(2-chlorophenyl)-7-quinolyl]oxy]acetyl]piperidine-3-carboxylic acid]	0.1 to 1 µM	0.05 to 0.5 µM
Cc1ccccc1-c1cc(Cl)nc2cc(O[C@H](C)C(=O)N3CCC[C@H](C(N)=O)C3)ccc12 [Compound 52, (3S)-1-[(2R)-2-[[2-chloro-4-(o-tolyl)-7-quinolyl]oxy]propanoyl]piperidine-3-carboxamide]	0.1 to 1 µM	0.01 to 0.05 µM
CCOC(=O)C[C@H]1CCCN(C(=O)[C@@H](C)Oc2ccc3c(-c4ccc(F)cc4Cl)ccnc3c2)C1 [Compound 15, ethyl 2-((R)-1-((R)-2-((4-(2-chloro-4-fluorophenyl)quinolin-7-yl)oxy)propanoyl)piperidin-3-yl)acetate]	0.02 to 0.1 µM	0.05 to 0.5 µM
C[C@@H](Oc1ccc2c(-c3ccc(F)cc3Cl)ccnc2c1)C(=O)N1CCC[C@@H](CC(=O)O)C1 [Compound 22, 2-[(3S)-1-[(2R)-2-[[4-(2-chloro-4-fluoro-phenyl)-7-quinolyl]oxy]propanoyl]-3-piperidyl]acetic acid]	0.02 to 0.1 µM	0.05 to 0.5 µM
C[C@@H](Oc1ccc2c(-c3c(Cl)cc(F)cc3Cl)ccnc2c1)C(=O)N1CCCC(C2(O)CC2)C1 (mixture of isomers) [Compound 203, rac-(2R)-2-[[4-(2,6-dichloro-4-fluoro-phenyl)-7-quinolyl]oxy]-143-(1-hydroxycyclopropyl)-1-piperidyl]propan-1-one]	0.1 to 1 µM	0.01 to 0.05 µM
C[C@@H](Oc1ccc2c(-c3ccc(F)cc3Cl)ccnc2c1)C(=O)N1CCC2(CC1)COC2 [Compound 210, (2R)-2-[[4-(2-chloro-4-fluoro-phenyl)-7-quinolyl]oxy]-1-(2-oxa-7-azaspiro[3.5]nonan-7-yl)propan-1-one]	0.1 to 1 µM	0.01 to 0.05 µM
Cc1cc(-c2ccccc2C)c2ccc(O[C@H](C)C(=O)N3CCC[C@H](CC(=O)O)C3)cc2n1 [Compound 69, 2-[(3R)-1-[(2R)-2-[[2-methyl-4-(o-tolyl)-7-quinolyl]oxy]propanoyl]-3-piperidyl]acetic acid]	0.1 to 1 µM	0.01 to 0.05 µM
C[C@@H](Oc1ccc2c(-c3ccccc3Cl)cc(Cl)nc2c1)C(=O)N1CCCCC1 [Compound 99, (2R)-2-[[2-chloro-4-(2-chlorophenyl)-7-quinolyl]oxy]-1-(1-piperidyl)propan-1-one]	1 to 10 µM	0.5 to 5 µM
C[C@@H]1CCCCN1C(=O)[C@@H](C)Oc1ccc2c(-c3c(Cl)cc(F)cc3Cl)ccnc2c1 [Compound 204, (2R)-2-[[4-(2,6-dichloro-4-fluoro-phenyl)-7-quinolyl]oxy]-1-[(2R)-2-methyl-1-piperidyl]propan-1-one]	0.1 to 1 µM	0.01 to 0.05 µM
